Reference: US10098902B2, “Arginase inhibitors as therapeutics” (Mars, Incorporated, priority 2010, dated 2018)

Assays:
[1] = target: human arginase II (ARG II) (Homo sapiens (Human), UniProt P78540); experiment: Inhibition of arginase II, spectrophotometric urea assay at 530 nm; assay type: biochemical; details: potency rank 1-5; pH 7.4, 37° C., 60 minutes
Description: (§1) Inhibition of arginase I (ARG I) and arginase II (ARG II) by Formula I or Formula II compounds is followed spectrophotometrically at 530 nm. The compound to be tested was dissolved in DMSO at an initial concentration 50-fold greater than its final concentration in the cuvette. 10 μl of the stock solution was diluted in 90 μl of the assay buffer that comprises 0.1M sodium phosphate buffer containing 130 mM NaCl, pH 7.4, to which is added ovalbumin (OVA) at a concentration of 1 mg/ml. Solutions of arginase I and II were prepared in 100 mM sodium phosphate buffer, pH 7.4 containing 1 mg/ml of OVA to give an arginase stock solution at a final concentration of 100 ng/ml.
(§2) To each well of a 96-well microtiter plate was added 40 μl of enzyme, 10 μl of an inventive compound and 10 μl of enzyme substrate (L-arginine+manganese sulfate). For wells that were used as positive controls, only the enzyme and its substrate were added, while wells used as negative controls contained only manganese sulfate.
(§3) After incubating the microtiter plate at 37° C. for 60 minutes, 150 μl of a urea reagent obtained by combining equal proportions (1:1) of reagents A and B is added to each well of the microtiter plate to stop the reaction. The urea reagent is made just before use by combining Reagent A (10 mM o-phthaldialdehyde, and 0.4% polyoxyethylene (23) lauryl ether (w/v) in 1.8 M sulfuric acid) with Reagent B (1.3 mM primaquine diphosphate, 0.4% polyoxyethylene (23) lauryl ether (w/v), 130 mM boric acid in 3.6 mM sulfuric acid). After quenching the reaction mixture, the microtiter plate is allowed to stand for an additional 10 minutes at room temperature to allow the color to develop. The inhibition of arginase was computed by measuring the optical density (OD) of the reaction mixture at 530 nm and normalizing the OD value to percent inhibition observed in the control. The normalized OD is then used to generate a dose-response curve by plotting the normalized OD values against log [concentration] and using regression analysis to compute the IC50 values.

human arginase I (ARG I) = human arginase I (ARG I) (Homo sapiens (Human), UniProt P05089); experiment: Inhibition of arginase I, spectrophotometric urea assay at 530 nm; assay type: biochemical; details: potency rank 1-5; pH 7.4, 37° C., 60 minutes
Chain of human arginase I (ARG I) (P05089 whole entry): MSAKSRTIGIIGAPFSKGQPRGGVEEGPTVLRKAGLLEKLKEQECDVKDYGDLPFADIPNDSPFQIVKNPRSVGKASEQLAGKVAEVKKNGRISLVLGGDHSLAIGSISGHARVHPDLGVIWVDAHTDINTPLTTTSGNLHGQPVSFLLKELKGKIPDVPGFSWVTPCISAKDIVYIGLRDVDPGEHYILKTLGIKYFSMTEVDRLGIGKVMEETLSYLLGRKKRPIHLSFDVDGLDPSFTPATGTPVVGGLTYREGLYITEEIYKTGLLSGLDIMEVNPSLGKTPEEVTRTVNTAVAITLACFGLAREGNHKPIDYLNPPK
Description: as §1, §2, §3

Chain of human arginase II (ARG II) (P78540 23-354): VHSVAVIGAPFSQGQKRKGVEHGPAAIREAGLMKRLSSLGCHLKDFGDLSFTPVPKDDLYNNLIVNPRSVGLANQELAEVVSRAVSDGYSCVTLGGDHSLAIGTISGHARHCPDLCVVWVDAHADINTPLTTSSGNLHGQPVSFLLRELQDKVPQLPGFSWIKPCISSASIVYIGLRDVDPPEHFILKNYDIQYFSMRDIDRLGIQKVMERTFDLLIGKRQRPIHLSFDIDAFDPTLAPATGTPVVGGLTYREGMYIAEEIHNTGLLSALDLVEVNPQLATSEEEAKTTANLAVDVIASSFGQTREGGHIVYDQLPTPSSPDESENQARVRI

| IC50 [1] [nM] | IC50 (human arginase I (ARG I)) [nM] | Structure (SMILES) |
| --- | --- | --- |
| 0.1 to 250 | 0.1 to 250 | N[C@@]1(C(=O)O)CN(C[C@@H]2Cc3ccccc3CN2)C[C@@H]1CCCB(O)O [Example 39, (3R,4S)-3-amino-4-(3-boronopropyl)-1-(((S)-1,2,3,4-tetrahydroisoquinolin-3-yl)methyl)pyrrolidine-3-carboxylic acid] |
| 251 to 1000 | 0.1 to 250 | N[C@@]1(C(=O)O)CN(Cc2c[nH]cn2)C[C@@H]1CCCB(O)O [Example 20, (3R,4S)-1-((1H-imidazol-4-yl)methyl)-3-amino-4-(3-boronopropyl)pyrrolidine-3-carboxylic acid] |
| 0.1 to 250 | 0.1 to 250 | N[C@@]1(C(=O)O)CN(CC2Cc3cc(Cl)ccc3CN2)C[C@@H]1CCCB(O)O (stereo partly drawn) [Example 51, (3R,4S)-3-amino-4-(3-boronopropyl)-1-((6-chloro-1,2,3,4-tetrahydroisoquinolin-3-yl)methyl)pyrrolidine-3-carboxylic acid] |
| 251 to 1000 | 0.1 to 250 | N[C@@]1(C(=O)O)CN(CC2CCCNC2)C[C@@H]1CCCB(O)O (stereo partly drawn) [Example 18, (3R,4S)-3-amino-4-(3-boronopropyl)-1-(piperidin-3-ylmethyl)pyrrolidine-3-carboxylic acid] |
| 1000 to 2000 | 251 to 1000 | CC(C)CN1C[C@H](CCCB(O)O)[C@](N)(C(=O)O)C1 [Example 11, (3R,4S)-3-amino-4-(3-boronopropyl)-1-isobutylpyrrolidine-3-carboxylic acid] |
| 0.1 to 250 | 0.1 to 250 | N[C@@]1(C(=O)O)CN(C(=O)C2Cc3ccc(Cl)cc3CN2)C[C@@H]1CCCB(O)O (stereo partly drawn) [Example 56, (3R,4S)-3-amino-4-(3-boronopropyl)-1-(7-chloro-1,2,3,4-tetrahydroisoquinoline-3-carbonyl)pyrrolidine-3-carboxylic acid] |
| 0.1 to 250 | 0.1 to 250 | NC1CCCCC1N1C[C@H](CCCB(O)O)[C@](N)(C(=O)O)C1 (stereo partly drawn) [Example 44, (3R,4S)-3-amino-1-(2-aminocyclohexyl)-4-(3-boronopropyl)pyrrolidine-3-carboxylic acid] |
| 1000 to 2000 | 1000 to 2000 | Cc1ccncc1N1C[C@H](CCCB(O)O)[C@](N)(C(=O)O)C1 [Example 32, (3R,4S)-3-amino-4-(3-boronopropyl)-1-(4-methylpyridin-3-yl)pyrrolidine-3-carboxylic acid] |
| 0.1 to 250 | 0.1 to 250 | N[C@@]1(C(=O)O)C[C@@H](NCc2ccccc2)C[C@@H]1CCCB(O)O (racemic) [Example 62, (1S,2S,4S)-1-amino-4-(benzylamino)-2-(3-boronopropyl)cyclopentanecarboxylic acid] |
| 0.1 to 250 | 0.1 to 250 | N[C@@]1(C(=O)O)CCO[C@H]1CCCB(O)O [Example 4, (2S,3S)-3-amino-2-(3-boronopropyl)tetrahydrofuran-3-carboxylic acid] |
| 0.1 to 250 | 0.1 to 250 | NCCN1C[C@H](CCCB(O)O)[C@](N)(C(=O)O)C1 [Example 24, (3R,4S)-3-amino-1-(2-aminoethyl)-4-(3-boronopropyl)pyrrolidine-3-carboxylic acid] |
| 0.1 to 250 | 0.1 to 250 | N[C@@]1(C(=O)O)CN(CCNc2ccc(-c3ccccc3)cc2)C[C@@H]1CCCB(O)O [Example 52, (3R,4S)-3-amino-1-(2-(biphenyl-4-ylamino)ethyl)-4-(3-boronopropyl)pyrrolidine-3-carboxylic acid] |
| 1000 to 2000 | 251 to 1000 | Nc1ccccc1S(=O)(=O)N1C[C@H](CCCB(O)O)[C@](N)(C(=O)O)C1 [Example 50, (3R,4S)-3-amino-1-(2-aminophenylsulfonyl)-4-(3-boronopropyl)pyrrolidine-3-carboxylic acid] |
| 251 to 1000 | 251 to 1000 | N[C@@]1(C(=O)O)CN(C(=O)Cc2ccc(Cl)cc2)C[C@@H]1CCCB(O)O [Example 45, (3R,4S)-3-amino-4-(3-boronopropyl)-1-(2-(4-chlorophenyl)acetyl)pyrrolidine-3-carboxylic acid] |
| 0.1 to 250 | 0.1 to 250 | NC1CCCC1N1C[C@H](CCCB(O)O)[C@](N)(C(=O)O)C1 (stereo partly drawn) [Example 14, (3R,4S)-3-amino-1-(2-aminocyclopentyl)-4-(3-boronopropyl)pyrrolidine-3-carboxylic acid] |
| 1000 to 2000 | 251 to 1000 | N[C@@]1(C(=O)O)CN(CC2CCNCC2)C[C@@H]1CCCB(O)O [Example 15] |
| 251 to 1000 | 251 to 1000 | N[C@@]1(C(=O)O)CN(CCCc2ccc(Cl)cc2)C[C@@H]1CCCB(O)O [Example 22, (3R,4S)-3-amino-4-(3-boronopropyl)-1-(3-(4-chlorophenyl)propyl)pyrrolidine-3-carboxylic acid] |
| 251 to 1000 | 0.1 to 250 | N[C@@]1(C(=O)O)CN(C(=O)C2Cc3ccccc3CN2)C[C@@H]1CCCB(O)O (mixture of isomers) [Example 53, (3R,4S)-3-amino-4-(3-boronopropyl)-1-(1,2,3,4-tetrahydroisoquinoline-3-carbonyl)pyrrolidine-3-carboxylic acid] |
| 0.1 to 250 | 0.1 to 250 | N[C@@]1(C(=O)O)CN(CC2CCCCN2)C[C@@H]1CCCB(O)O (stereo partly drawn) [Example 21, (3R,4S)-3-amino-4-(3-boronopropyl)-1-(piperidin-2-ylmethyl)pyrrolidine-3-carboxylic acid] |
| 251 to 1000 | 251 to 1000 | N[C@@]1(C(=O)O)CN(Cc2ccnc3ccccc23)C[C@@H]1CCCB(O)O [Example 19, (3R,4S)-3-amino-4-(3-boronopropyl)-1-(quinolin-4-ylmethyl)pyrrolidine-3-carboxylic acid] |
| 2000 to 5000 | 1000 to 2000 | NC1(C(=O)O)CCSC1CCCB(O)O (stereo not shown) [Example 5, 3-amino-2-(3-boronopropyl)tetrahydrothiophene-3-carboxylic acid] |
| 0.1 to 250 | 0.1 to 250 | CN(C)[C@H]1C[C@H](CCCB(O)O)[C@](N)(C(=O)O)C1 (racemic) [Example 63, (1S,2S,4S)-1-amino-2-(3-boronopropyl)-4-(dimethylamino)cyclopentanecarboxylic acid] |
| 2000 to 5000 | 1000 to 2000 | N[C@@]1(C(=O)O)CCO[C@@H]1CCCB(O)O [Example 3, (2R,3S)-3-amino-2-(3-boronopropyl)tetrahydrofuran-3-carboxylic acid] |
| 251 to 1000 | 0.1 to 250 | CN1CCCCC1CN1C[C@H](CCCB(O)O)[C@](N)(C(=O)O)C1 (stereo partly drawn) [Example 36, (3R,4S)-3-amino-4-(3-boronopropyl)-1-((1-methylpiperidin-2-yl)methyl)pyrrolidine-3-carboxylic acid] |
| 1000 to 2000 | 1000 to 2000 | CNC(Cc1ccccc1)C(=O)N1C[C@H](CCCB(O)O)[C@](N)(C(=O)O)C1 (stereo partly drawn) [Example 58, (3R,4S)-3-amino-4-(3-boronopropyl)-1-(2-(methylamino)-3-phenylpropanoyl)pyrrolidine-3-carboxylic acid] |

| Structure (SMILES) | IC50 [1] [nM] | IC50 (human arginase I (ARG I)) [nM] |
| --- | --- | --- |
| N[C@@]1(C(=O)O)CNC[C@@H]1CCCB(O)O [Example 8, (3R,4S)-3-amino-4-(3-boronopropyl)pyrrolidine-3-carboxylic acid] | 251 to 1000 | 251 to 1000 |
| N[C@@]1(C(=O)O)CCC[C@H]1CCCB(O)O [Example 2, (1S,2R)-1-amino-2-(3-boronopropyl)cyclopentanecarboxylic acid] | > 5000 | > 5000 |
| N[C@H]1C[C@H](CCCB(O)O)[C@](N)(C(=O)O)C1 [Example 61, (1S,2S,4S)-1,4-diamino-2-(3-boronopropyl)cyclopentanecarboxylic acid] | 251 to 1000 | 251 to 1000 |
| N[C@@]1(C(=O)O)CCN[C@@H]1CCCB(O)O [Example 10, (2R,3S)-3-amino-2-(3-boronopropyl)pyrrolidine-3-carboxylic acid] | > 5000 | > 5000 |
| N[C@@]1(C(=O)O)CN(C(=O)[C@@H]2CCCN2)C[C@@H]1CCCB(O)O [Example 43, (3R,4S)-3-amino-4-(3-boronopropyl)-1-((S)-pyrrolidine-2-carbonyl)pyrrolidine-3-carboxylic acid] | 251 to 1000 | 0.1 to 250 |
| N[C@@]1(C(=O)O)CCC[C@@H]1CCCB(O)O (racemic) [Example 1, (1S,2S)-1-amino-2-(3-boronopropyl)cyclopentanecarboxylic acid] | 251 to 1000 | 251 to 1000 |
| N[C@@]1(C(=O)O)CN(C(=O)Nc2ccc(F)cc2)C[C@@H]1CCCB(O)O (racemic) [Example 48, (3R,4S)-3-amino-4-(3-boronopropyl)-1-(4-fluorophenylcarbamoyl)pyrrolidine-3-carboxylic acid] | 251 to 1000 | 251 to 1000 |
